Reference: paper PMC11267548 (JACS Au, 2024)

Biological target: T1, ScGPUT (Solitalea canadensis, UniProt H8KMA8)
T1 sequence (H8KMA8 1-293): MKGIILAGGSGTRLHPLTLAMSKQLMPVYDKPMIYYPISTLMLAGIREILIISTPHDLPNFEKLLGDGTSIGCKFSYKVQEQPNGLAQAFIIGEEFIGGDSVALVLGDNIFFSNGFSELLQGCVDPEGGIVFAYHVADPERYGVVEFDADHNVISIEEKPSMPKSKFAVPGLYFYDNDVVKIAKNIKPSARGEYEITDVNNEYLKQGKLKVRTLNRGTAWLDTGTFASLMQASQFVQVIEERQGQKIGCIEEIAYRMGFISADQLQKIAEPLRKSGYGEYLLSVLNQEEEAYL
Experiment: conversion of xylose-1-phosphate to UDP-xylose, TLC
Assay type: biochemical
Settings: read-out: % inhibition at 10 mM

Structure (SMILES)	inhibition at 10000 µM [%]
Nc1ncnc2c1ncn2[C@@H]1O[C@H](COP(=O)(O)OP(=O)(O)O)[C@@H](O)[C@H]1O [ADP]	> 50
Nc1ncnc2c1ncn2[C@@H]1O[C@H](COP(=O)(O)OP(=O)(O)OP(=O)(O)O)[C@@H](O)[C@H]1O [ATP]	> 50
